Reference: PubChem BioAssay AID2060619 (Molecular Pharmacology Branch, DTP, NCI, 2025)

Tested on: 323965-272-R-J2-PDC complex spheroid viability
Assay: Anticancer human tumor 323965-272-R-J2-PDC patient-derived pancreatic carcinoma cell line growth inhibition [CLK]
Conditions: for IC50: curve of first compound; for viability, T/C: stronger effect = lower value
Method in brief: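 Multi-cell-type spheroids combined patient-derived tumor cells with HUVEC endothelial cells and human mesenchymal stem cells. Paired agents were dosed in half-log steps down from about clinical Cmax, or from 10 microM where Cmax was unknown.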

[1] = second compound 0.0316 µM, first compound 0.0316 µM
[2] = second compound 0.0316 µM, first compound 0.1 µM
[3] = second compound 0.0316 µM, first compound 0.316 µM
[4] = second compound 0.0316 µM, first compound 1 µM
[5] = second compound 0.0316 µM, first compound 3.16 µM
[6] = second compound 0.0316 µM, first compound 10 µM
[7] = second compound 0.1 µM, first compound 0.0316 µM
[8] = second compound 0.1 µM, first compound 0.1 µM
[9] = second compound 0.1 µM, first compound 0.316 µM
[10] = second compound 0.1 µM, first compound 1 µM
[11] = second compound 0.1 µM, first compound 3.16 µM
[12] = second compound 0.1 µM, first compound 10 µM
[13] = second compound 0.316 µM, first compound 0.0316 µM
[14] = second compound 0.316 µM, first compound 0.1 µM
[15] = second compound 0.316 µM, first compound 0.316 µM
[16] = second compound 0.316 µM, first compound 1 µM
[17] = second compound 0.316 µM, first compound 3.16 µM
[18] = second compound 0.316 µM, first compound 10 µM
[19] = second compound 1 µM, first compound 0.0316 µM
[20] = second compound 1 µM, first compound 0.1 µM
[21] = second compound 1 µM, first compound 0.316 µM
[22] = second compound 1 µM, first compound 1 µM
[23] = second compound 1 µM, first compound 3.16 µM
[24] = second compound 1 µM, first compound 10 µM
[25] = second compound 3.16 µM, first compound 0.0316 µM
[26] = second compound 3.16 µM, first compound 0.1 µM
[27] = second compound 3.16 µM, first compound 0.316 µM
[28] = second compound 3.16 µM, first compound 1 µM
[29] = second compound 3.16 µM, first compound 3.16 µM
[30] = second compound 3.16 µM, first compound 10 µM
[31] = second compound 10 µM, first compound 0.0316 µM
[32] = second compound 10 µM, first compound 0.1 µM
[33] = second compound 10 µM, first compound 0.316 µM
[34] = second compound 10 µM, first compound 1 µM
[35] = second compound 10 µM, first compound 3.16 µM
[36] = second compound 10 µM, first compound 10 µM
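Note: spheroids exposed to agents for seven days before readout.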
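Throughout, for viability, T/C: percent of DMSO vehicle control wells so 100% = untreated growth.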

With `CC(CO)NC(=O)c1cc(-c2ccc(Cl)cc2)nn(-c2cnn(C)c2)c1=O` (centres undefined) + CN1CCN(c2cc(C(=O)Nc3cc4cc(-c5cnn(C)c5)ccc4cn3)ccn2)CC1 the IC50 (second compound 0.0316 µM) was over 10000 nM, the IC50 (second compound 0.1 µM) was over 10000 nM and the IC50 (second compound 0.316 µM) was under 31.6 nM. The IC50 (second compound 1 µM) was under 31.6 nM, the IC50 (second compound 3.16 µM) was under 31.6 nM and the IC50 (second compound 10 µM) was under 31.6 nM. It also gave a viability, T/C [1] of 97.3%, a viability, T/C [2] of 102% and a viability, T/C [3] of 103%. It also gave a viability, T/C [4] of 87.4%, a viability, T/C [5] of 112% and a viability, T/C [6] of 113%. It also gave a viability, T/C [7] of 68%, a viability, T/C [8] of 80.5% and a viability, T/C [9] of 83.1%. For the same molecule, the viability, T/C [10] was 72.5%, the viability, T/C [11] was 76% and the viability, T/C [12] was 89.5%. For the same molecule, the viability, T/C [13] was 25.8%, the viability, T/C [14] was 27.2% and the viability, T/C [15] was 25%. It also gave a viability, T/C [16] of 22.3%, a viability, T/C [17] of 28.2% and a viability, T/C [18] of 32.8%. For the same molecule, the viability, T/C [19] was 3.75%, the viability, T/C [20] was 3.59% and the viability, T/C [21] was 4.21%. For the same molecule, the viability, T/C [22] was 3.61%, the viability, T/C [23] was 3.03% and the viability, T/C [24] was 3.2%. For the same molecule, the viability, T/C [25] was 4.17%, the viability, T/C [26] was 3.62% and the viability, T/C [27] was 3.4%. It also gave a viability, T/C [28] of 3.82%, a viability, T/C [29] of 4.87% and a viability, T/C [30] of 4.3%. It also gave a viability, T/C [31] of 4.55%, a viability, T/C [32] of 5.29% and a viability, T/C [33] of 4.22%. It also gave a viability, T/C [34] of 3.24%, a viability, T/C [35] of 3.64% and a viability, T/C [36] of 3.17%.

`CC(Nc1ccc2c(c1)OCCn1cc(N3C(=O)OCC3C(F)F)nc1-2)C(N)=O` (centres undefined) + CN1CCN(c2cc(C(=O)Nc3cc4cc(-c5cnn(C)c5)ccc4cn3)ccn2)CC1 was tested, and the IC50 (second compound 0.0316 µM) was 7280 nM, the IC50 (second compound 0.1 µM) was 327 nM and the IC50 (second compound 0.316 µM) was under 31.6 nM. It also gave an IC50 (second compound 1 µM) of under 31.6 nM, an IC50 (second compound 3.16 µM) of under 31.6 nM and an IC50 (second compound 10 µM) of under 31.6 nM. It also gave a viability, T/C [1] of 91.5%, a viability, T/C [2] of 78.7% and a viability, T/C [3] of 79%. For the same molecule, the viability, T/C [4] was 65.6%, the viability, T/C [5] was 55.3% and the viability, T/C [6] was 48%. For the same molecule, the viability, T/C [7] was 67.6%, the viability, T/C [8] was 58.3% and the viability, T/C [9] was 50%. For the same molecule, the viability, T/C [10] was 45.1%, the viability, T/C [11] was 37.5% and the viability, T/C [12] was 36.7%. The viability, T/C [13] was 27.5%, the viability, T/C [14] was 23.4% and the viability, T/C [15] was 18%. For the same molecule, the viability, T/C [16] was 19.1%, the viability, T/C [17] was 19.2% and the viability, T/C [18] was 14.3%. The viability, T/C [19] was 3.27%, the viability, T/C [20] was 4.12% and the viability, T/C [21] was 3.78%. The viability, T/C [22] was 2.98%, the viability, T/C [23] was 2.66% and the viability, T/C [24] was 2.88%. For the same molecule, the viability, T/C [25] was 3.35%, the viability, T/C [26] was 3.08% and the viability, T/C [27] was 2.69%. For the same molecule, the viability, T/C [28] was 2.63%, the viability, T/C [29] was 2.26% and the viability, T/C [30] was 2.14%. It also gave a viability, T/C [31] of 2.98%, a viability, T/C [32] of 3.37% and a viability, T/C [33] of 3.23%. The viability, T/C [34] was 2.97%, the viability, T/C [35] was 3.87% and the viability, T/C [36] was 2.96%.
